Common to all, as to format: cell-based
The test system of assay [1] is yeast expressing two copies of alpha synuclein. An excerpt:
(§1) An exemplary aS-expressing yeast cell for use in a growth rescue screen described herein is yeast expressing two copies of aS, as described in Outeiro et al. (2003) Science 302:1772. An exemplary htt-expressing strain for use in a growth rescue screen described herein is yeast expressing a fusion protein comprising a FLAG tag and an expanded htt polyQ (103) domain, as described in Meriin et al. (2002) J. Cell Biol. 158:591.
(§2) Phenotype MicroArray™ (Biolog, Inc., Hayward, Calif.) was employed to evaluate the effects of various compounds in yeast expressing one or two copies of alpha synuclein.

Assay [2] has as its system yeast expressing a toxic amount and form of huntingtin.
Excerpt: as §1
(§3) Phenotype MicroArray™ (Biolog, Inc., Hayward, Calif.) was employed to evaluate the ability of various compounds to rescue viability in yeast expressing a toxic amount and form of huntingtin. […] Bioscreen C MBR (Labsystem Corp, Helsinki, Finland) was also used to evaluate the effects of the clioquinols.

Assay [3] concerns yeast expressing one copy of alpha synuclein.
Excerpt: as §2

The subject of assay [4] is yeast expressing a toxic amount and form of huntingtin.
Excerpt: For example, the Bioscreen-C system (Labsystem Corp, Helsinki, Finland) permits the growth of up to 200 cell cultures at the same time, under different conditions. Growth rates are monitored optically, recorded automatically, and stored as digital files for further manipulations. […] Mutants and chemicals from a variety of sources will be tested.
as §3
The source holds these as a separate data set.

Setting [5] is: yeast expressing one copy of alpha synuclein, Phenotype MicroArray.
Setting [6] is: yeast expressing toxic huntingtin, Bioscreen C MBR.
[7] abbreviates: yeast expressing toxic huntingtin, Phenotype MicroArray.
The mark [8] stands for this setting: yeast expressing two copies of alpha synuclein, Phenotype MicroArray.

Counter-ions that a name gives are not always drawn. Like-named read-outs stand apart in the source and are kept apart here. Peptide text beside a SMILES is read from it.

With `CC(Cc1ccc(O)c(O)c1)C(C)Cc1ccc(O)c(O)c1` (stereo not drawn) [nordihydroguaiaretic acid], the “effect on alpha synuclein-mediated toxicity” value in assay [1] is reported as “suppressors of alpha synuclein-mediated toxicity”. Besides, in assay [2], the “effect on huntingtin-mediated toxicity (rescue of viability)” value (from here on “effect … (rescue of viability)”) is given as “suppressors of huntingtin-mediated toxicity”. With `CCCCCCCCCCCCC/C=C/[C@@H](O)[C@@H](N)CO` [D-Sphingosine], the “effect on alpha synuclein-mediated toxicity” value in assay [3] (setting [5]) is recorded as “enhancers of alpha synuclein-mediated toxicity”.

As for `Cc1ccc2c(Cl)cc(Cl)c(O)c2n1` [5,7-Dichloro-8-hydroxy-quinaldine], in assay [4] (setting [6]), the “effect on huntingtin-mediated toxicity” value is given as “alleviated huntingtin-mediated toxicity”. Further, in assay [2] (setting [7]), the “effect … (rescue of viability)” value was “suppressors of huntingtin-mediated toxicity”. The matching figures for `O=[N+]([O-])c1ccc(O)c2ncccc12` [8-Hydroxy-5-nitroquinoline]: “alleviated huntingtin-mediated toxicity” and “suppressors of huntingtin-mediated toxicity”. With `O=S([O-])([O-])=S.[Na+].[Na+]` [sodium thiosulfate], the “effect on alpha synuclein-mediated toxicity” value in assay [3] is “enhancers of alpha synuclein-mediated toxicity”.

Consider `Cc1cccc(O)c1` [m-cresol], for which the “effect on alpha synuclein-mediated toxicity” value in assay [1] (setting [8]) is “suppressors of alpha synuclein-mediated toxicity”. Besides, in assay [2] (setting [7]), the “effect … (rescue of viability)” value is given as “suppressors of huntingtin-mediated toxicity”. As to `COc1ccc2c(c[n+](C)c3c4cc5c(cc4ccc23)OCO5)c1OC` [chelerythrine], the “effect on alpha synuclein-mediated toxicity” value in assay [3] (setting [5]) is “enhancers of alpha synuclein-mediated toxicity”.

On to `CC1=CC(=O)c2c(O)cccc2C1=O` [plumbagin], for which, in assay [3] (setting [5]), the “effect on alpha synuclein-mediated toxicity” value is recorded as “enhancers of alpha synuclein-mediated toxicity”. For the compound “sodium phosphate [sodium phosphate pH 7]”, the “effect on alpha synuclein-mediated toxicity” value in assay [3] is “enhancers of alpha synuclein-mediated toxicity”. For `O=C([O-])c1ccccc1.[Na+]` [sodium benzoate pH 5.2, sodium benzoate], the “effect on alpha synuclein-mediated toxicity” value in assay [3] (setting [5]) is given as “enhancers of alpha synuclein-mediated toxicity”. As for `Oc1cccc2cccnc12` [8-Hydroxyquinoline], the “effect on huntingtin-mediated toxicity” value in assay [4] is reported as “alleviated huntingtin-mediated toxicity”. In assay [2], the “effect … (rescue of viability)” value was “suppressors of huntingtin-mediated toxicity”. Turning to `COc1ccc(C[C@H]2NC[C@H](O)[C@H]2OC(C)=O)cc1` [anisomycin], the “effect on alpha synuclein-mediated toxicity” value in assay [3] (setting [5]) is “enhancers of alpha synuclein-mediated toxicity”. Same read-out and setting: for `CC1=C(C(=O)Nc2ccccc2)SCCO1` [carboxin] the value was “enhancers of alpha synuclein-mediated toxicity”; for `CSCC[C@H](NC(=O)[C@@H](N)Cc1ccccc1)C(=O)O` [Phe-Met] (H-Phe-Met-OH), “enhancers of alpha synuclein-mediated toxicity”. Still for that read-out and setting: for `CC[C@@]1([C@@H]2O[C@@H]([C@H]3O[C@@](O)(CO)[C@H](C)C[C@@H]3C)C[C@@H]2C)CC[C@H]([C@]2(C)CC[C@]3(C[C@H](O)[C@@H](C)[C@@H]([C@@H](C)[C@@H](OC)[C@H](C)C(=O)O)O3)O2)O1` [monensin] the value was “enhancers of alpha synuclein-mediated toxicity”. In the case of `CN(C)C(=O)/N=N/C(=O)N(C)C` [diamide], the “effect on alpha synuclein-mediated toxicity” value in assay [3] (setting [5]) is reported as “enhancers of alpha synuclein-mediated toxicity”.

`CCC(O)C(=O)O` (racemic) [D,L-a-hydroxy-butyric acid]: in assay [1], the “effect on alpha synuclein-mediated toxicity” value is “suppressors of alpha synuclein-mediated toxicity”. On to `OP(O)(=S)S` [dithiophosphate], for which the “effect on alpha synuclein-mediated toxicity” value in assay [3] (setting [5]) is “enhancers of alpha synuclein-mediated toxicity”. The same measure, in the same setting: as for `CC[C@H](C)[C@H](N)C(=O)O` [L-Isoleucine], the entry is “enhancers of alpha synuclein-mediated toxicity”. On to `Oc1c(Cl)cc(Cl)c(Cl)c1Cc1c(O)c(Cl)cc(Cl)c1Cl` [hexachlorophene], for which the “effect on alpha synuclein-mediated toxicity” value in assay [1] was “suppressors of alpha synuclein-mediated toxicity”.

With `O=[Si]([O-])[O-].[Na+].[Na+]` [sodium metasilicate], the “effect on alpha synuclein-mediated toxicity” value in assay [1] (setting [8]) is reported as “suppressors of alpha synuclein-mediated toxicity”.

`OP(O)(O)=S` [thiophosphate]: the “effect on alpha synuclein-mediated toxicity” value in assay [3] (setting [5]) was “enhancers of alpha synuclein-mediated toxicity”. Turning to sodium metavanadate, the “effect on alpha synuclein-mediated toxicity” value in assay [1] is reported as “suppressors of alpha synuclein-mediated toxicity”.

With ruthenium red, in assay [1] (setting [8]), the “effect on alpha synuclein-mediated toxicity” value is listed as “suppressors of alpha synuclein-mediated toxicity”.

For `CCCCCCCCCCCC[N+](C)(C)C.[Br-]` [dodecyltrimethyl ammonium bromide], in assay [3] (setting [5]), the “effect on alpha synuclein-mediated toxicity” value is on record as “enhancers of alpha synuclein-mediated toxicity”. On the same count and under the same terms, as for `CC1=C(C(=O)Nc2ccccc2)S(=O)(=O)CCO1` [oxycarboxin], the entry is “enhancers of alpha synuclein-mediated toxicity”. For `CC(C)Cc1ccc(C(C)C(=O)O)cc1` (stereo not drawn) [ibuprofen], the “effect on alpha synuclein-mediated toxicity” value in assay [1] was “suppressors of alpha synuclein-mediated toxicity”. Regarding `N=C(N)N` [guanidine hydrochloride], the “effect … (rescue of viability)” value in assay [2] (setting [7]) is reported as “suppressors of huntingtin-mediated toxicity”.

The values above are taken from patent US20080249129A1, “Compositions and Methods for Treatment of Protein Misfolding Diseases” (priority 2004, published 2008).
